From PMC2775811 (The Journal of neuroscience : the official journal of the …, 2009)

How the values were obtained:
[1] = target: Hsp70 (Homo sapiens, UniProt P0DMV8); assay: malachite green ATPase assay, 8-point dose dependence; format: biochemical
[2] = target: Hsc70 (Homo sapiens, UniProt P11142); assay: […]-1H HSQC-TROSY NMR titration, […]-labelled apo-Hsc70; format: binding

Compound | IC50 [1] | Kd [2]
CNc1ccc2nc3ccc(N)cc3[s+]c2c1 [AC, azure C] | 11 µM | 
CN(C)c1ccc2nc3ccc(=[N+](C)C)cc-3sc2c1 [MB, methylene blue] | 83 µM | ~1 µM
O=c1c(O)c(-c2cc(O)c(O)c(O)c2)oc2cc(O)cc(O)c12 [MY, myricetin] | 12 µM | 
